Patent US10092633B2, “Newly identified peptides for use in the induction of oral tolerance in young mammals” (NESTEC S.A., priority 2013, dated 2018)

Legend:
HLA-DR = assay: peptides bound to HLA-DR on cells cultured with NAN-HA/BEBA-HA formula, isolated by immunoprecipitation and identified by LC-MS/MS; format: binding, human; settings: U937 and Thp1 cells incubated 24 hours with BEBA-HA; immunoprecipitation with clone L243; nano-LC-MSMS
Method: In a set of experiments detailed in Example 1, the present inventors identified the peptide sequences of BLG responsible for the induction of oral tolerance towards milk proteins, in particular BLG. In a first step, using a cellular based assay, partially hydrolyzed infant formula NAN HA™ (otherwise known as BEBE HA™) from Nestlé, was incubated with human cells expressing the Major Histocompatibility Complex (MHC) class II receptor, HLA-DR. As the first step in the induction of oral tolerance, the HLA receptor presents peptide sequences to the T cells, thereby inducing tolerance. Thus, development of tolerance is largely dependent on the recognition of the peptide sequence by the MHC.
Thus, in the current invention, the human cells expressing HLA-DR were cultured in the presence of NAN-HA™ formula (which had been verified to be non-toxic for the cells), the peptides that bound to the HLA receptor were isolated by immunoprecipitation, and then identified by mass spectrometry and amino acid sequencing.
The Thp1 and U937 cells were incubated in 20 mL RPMI-1640 medium with L-Glutamine (Sigma) supplemented with 10% heat-inactivated FCS (Amimed, Bioconcept) and Penicillin/Streptomycin (Sigma) at a concentration of 1×10^6 cells/mL in a T175 cm^2 (Falcon) with respectively 1 ug/mL and 100 ug/mL of BEBA-HA (Nestlé, Lot# L02680742AP) for a 24 hours period at 37° C. in presence of 5% CO2. Cells were spun down and harvested to perform immunoprecipitation of MHC-peptide complexes.
Briefly, for each condition tested (control without BEBA-HA, sample with BEBA-HA for both cell lines), 2×10^7 cells were resuspended in ice cold TBS and washed three times. […]
Before MS analysis, HLA-DR peptides were desalted using either reversed-phase C18 (The Nest group, USA) or mixed-mode OASIS (Waters, USA) desalting columns as described in the manufacturer's manual. After desalting, peptides were analyzed by nano-LC-MSMS using an in-house Magic C18 column (150×0.075 mm) for peptide separation (2-35% Acetontril/0.1% formaic acid in 30 minutes) coupled to an Orbitrap XL instrument. […]

[1] = system: oral tolerance to β-lactoglobulin; settings: previously identified as part of a longer peptide sequence in the earlier filing; cited from earlier work
[2] = system: BLG-specific IgE antibodies; assay: experimental mouse model of sensitization to BLG: gavage, then i.p. sensitization, BLG-specific IgE in serum; format: in vivo, BALB/cJ mice; settings: gavage days 1, 2, 3, 8, 9 and 10 (0.22 μmole); i.p. native BLG on alum day 14; serum days 30-33; FIG. 1
Method: Mice were fed either native BLG or either synthetic peptide (84-106) or (25-107) by gavage on day 1, 2, 3, 8, 9 and 10. They were then sensitized by i.p. administration with native BLG on day 14. Serum IgE levels were measured between day 30 and 33.
Specific pathogen-free (SPF) BALB/cJ mice (3 to 4 weeks-old females, Centre d'Elevage René Janvier, Le Genest Saint-Isle, France) were housed in filtered cages under normal SPF husbandry conditions (autoclaved bedding and sterile water) and were acclimatized for two weeks before experiments. They were maintained on a diet deprived of animal protein, and in which BLG was not detected using specific sandwich immunoassays. All animal experiments were performed according to European Community rules of animal care, and with authorization 91-368 of the French Veterinary Services. […]
Groups of 6 or 7 mice were administered either 4 mg of native bovine BLG, or equivalent quantity (i.e. 0.22 μmole) of isolated synthetic BLG peptides. […]
The efficacy of mice sensitization was assessed by quantitative measurements of BLG-specific IgE antibodies on individual serum samples collected from the mice retro-orbital venous plexus under light anaesthesia (Isoflurane, Baxter) between days 30-33. Non-specific binding was determined using individual sera from 10 naive mice, and was deduced from the absorbance values measured with immune sera. […]

Row | Substance | recognition by and binding to HLA-DR (identified among HLA-DR bound peptides) (HLA-DR) | induction of oral tolerance [1] | BLG-specific serum IgE level / tolerance induction compared to control (PBS) [2]
1 | EVDDEALEK [peptide c, previously known tolerogenic BLG peptide, position 143-151, positive control] | identified by this method | inducers of oral tolerance | 
2 | IDALNENK [peptide a, previously known tolerogenic BLG peptide, position 100-107, positive control] | identified by this method | inducers of oral tolerance | 
3 | VLDTDY (SAEPEQ; UniProt P02754 126-131, looked up, fragment) [peptide b, previously known tolerogenic BLG peptide, position 110-115, positive control] | identified by this method | inducers of oral tolerance | 
4 | peptide (84-106): synthetic peptide corresponding to the bovine BLG sequence numbers 84-106 (MW 2731 Da) (IDALNENKVLVLDTDYKKYLLFC; UniProt P02754 100-122, looked up, fragment) |  |  | tendency towards a lower level of IgE
